Experiments:
[1] = Safety and reactogenicity monitoring in neonatal/infant rhesus macaques; format: in vivo, rhesus macaques (Macaca mulatta)
Procedure: In vivo neonatal and infant rhesus macaque vaccination studies. Rhesus macaques (Indian origin Macaca mulatta) were obtained from the TNPRC specific pathogen-free breeding colony. Upon identification, pregnant dams were transferred to an indoor social group to allow for monitoring and delivery of infants. At birth, neonatal rhesus macaques (<24 hours of age) were enrolled into the longitudinal immunization study. Exclusion criteria were, a) maternal fever (≥40° C.) during infant exam on DOL0, b) birth weight<400 g, c) clinical signs of neonatal infection (e.g. infant temperature […]; nasal, ocular discharge; respiratory distress, cardiovascular instability), d) congenital defects (e.g. abnormal digits, omphalocele) and/or e) abnormal cling. Animals were group-housed in dam/infant pairs with a maximum of 4 pairs (8 animals) together. […] Standard physiological safety parameters, extrapolated from human infant clinical trials of PCV (28), included temperature and weight (normalized to Tulane National Primate Research Center reference standard for rhesus macaques), which were recorded at multiple time-points at observation/sample-acquisition, as well as local signs of reactogenicity such as leg circumference pre/post-immunization and photographic documentation of erythema (Table 4). […]

human TLR7 = molecular target: T1, human TLR7 (Homo sapiens, UniProt Q9NYK1); experiment: HEK293 NF-kB SEAP reporter assay, human TLR7; format: cell-based; details: among six IMQ and OA compounds, SEAP fold change
T1 construct: host or cells: HEK293 with NF-kB-responsive SEAP reporter
T1 sequence (Q9NYK1 27-1049): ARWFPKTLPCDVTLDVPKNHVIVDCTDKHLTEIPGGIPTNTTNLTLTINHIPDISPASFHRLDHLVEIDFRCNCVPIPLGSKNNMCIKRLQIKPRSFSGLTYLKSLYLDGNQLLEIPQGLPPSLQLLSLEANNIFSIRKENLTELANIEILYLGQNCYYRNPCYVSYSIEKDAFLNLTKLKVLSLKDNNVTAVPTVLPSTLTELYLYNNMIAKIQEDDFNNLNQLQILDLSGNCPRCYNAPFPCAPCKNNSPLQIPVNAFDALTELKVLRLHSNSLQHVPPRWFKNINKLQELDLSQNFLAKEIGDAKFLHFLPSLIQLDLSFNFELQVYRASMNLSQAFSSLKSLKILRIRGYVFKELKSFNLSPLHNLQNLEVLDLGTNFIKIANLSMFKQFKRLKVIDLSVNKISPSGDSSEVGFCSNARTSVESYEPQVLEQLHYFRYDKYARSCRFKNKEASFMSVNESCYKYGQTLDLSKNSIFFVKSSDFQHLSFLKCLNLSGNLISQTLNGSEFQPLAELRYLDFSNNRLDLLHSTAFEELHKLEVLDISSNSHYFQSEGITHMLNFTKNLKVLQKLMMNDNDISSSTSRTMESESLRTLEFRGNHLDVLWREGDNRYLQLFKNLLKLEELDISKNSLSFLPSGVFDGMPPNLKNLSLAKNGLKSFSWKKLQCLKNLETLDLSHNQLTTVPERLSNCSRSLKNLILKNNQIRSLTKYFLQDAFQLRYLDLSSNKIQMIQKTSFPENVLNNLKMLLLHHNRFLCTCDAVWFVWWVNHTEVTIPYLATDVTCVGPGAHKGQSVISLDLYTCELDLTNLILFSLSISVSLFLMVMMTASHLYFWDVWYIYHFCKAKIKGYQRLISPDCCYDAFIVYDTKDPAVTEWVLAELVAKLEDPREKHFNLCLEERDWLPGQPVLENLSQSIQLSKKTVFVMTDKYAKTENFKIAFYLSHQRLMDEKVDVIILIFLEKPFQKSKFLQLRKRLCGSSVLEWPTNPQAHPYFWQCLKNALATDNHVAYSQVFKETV
Procedure: Human embryonic kidney (HEK)293 cells expressing human TLR7 or TLR8 with an NF-κB-responsive secreted embryonic alkaline phosphatase (SEAP) reporter gene were obtained from Novus Biologicals (Littleton, Colo.) and Invivogen (San Diego, Calif.), respectively. Cells were maintained in DMEM with 10% HI-FBS and selection antibiotics per the manufacturer's instructions. Cells were plated at 5×10^5 cells/96-well and stimulated with indicated agonist(s) for 24 h. Supernatants were harvested and analyzed for NF-κB/SEAP activation using the QuantiBlue™ kit (Invivogen). Values are expressed as fold change in OD650 over vehicle-only treated samples.

Compound	animals with transient and mild maculopapular rash ([1]; 3M-052- or (PCV13+3M-052)-treated infant animals, co-housed, second enrollment season)	systemic cytokine induction (plasma) ([1]; with or without PCV13, first 63 days of life or 48 hours post (DOL30) a single dose)	potency for hTLR7 (human TLR7)
CCCCCCCCCCCCCCCCCC(=O)NCCCCOn1c(CCCC)nc2c(N)nc3ccccc3c21 [3M-052, N-[4-[(4-amino-2-butyl-1H-imidazo[4,5-c]quinolin-1-yl)oxy]butyl]octadecanamide]	3 of the total of 16	did not induce systemic cytokine induction	
CCCCc1nc2c(N)nc3ccccc3c2n1CCO [CRX-649]			greatest potency
